Measured values taken from patent US10105357B2, “Indication of antibiotic drugs for preparation of cancer inhibition pharmaceutical composition” (LAUNX BIOMEDICAL CO., LTD., priority 2014, dated 2018).
Read-outs that look alike come from different tables or passages of the source.

Tests used:
[1] = system: PC3 (p53−) (Prostate Adenocarcinoma); assay: Cell viability analysis, prostate cancer PC3; format: cell-based, human
NIH: OVCAR-3 = assay: Cell viability analysis, ovarian cancer NIH: OVCAR-3; format: cell-based, human
[2] = system: AGS (Gastric Adenocarcinoma); assay: Cell viability analysis, gastric cancer AGS; format: cell-based, human
[3] = system: SAS (Tongue squamous cell carcinoma); assay: Cell viability analysis, tongue cancer SAS; format: cell-based, human
BxPC-3 = assay: Cell viability analysis, pancreatic cancer BxPC-3; format: cell-based, human
[4] = system: HeLa (Cervix Adenocarcinoma); assay: Cell viability analysis, cervical cancer HeLa; format: cell-based, human
[5] = system: MDA-MB-231 (Mammary Gland, Adenocarcinoma); assay: Cell viability analysis, breast cancer MDA-MB-231; format: cell-based, human
[6] = system: MCF7 (Mammary Gland, Adenocarcinoma); assay: Cell viability analysis, breast cancer MCF7; format: cell-based, human
AsPC-1 = assay: Cell viability analysis, pancreatic cancer AsPC-1; format: cell-based, human
T24 = assay: Cell viability analysis, bladder cancer T24; format: cell-based, human
[7] = system: LoVo (Colorectal Adenocarcinoma); assay: Cell viability analysis, colon cancer LoVo; format: cell-based, human
[8] = system: HI650 (Lung Adenocarcinoma); assay: Cell viability analysis, lung cancer HI650; format: cell-based, human
[9] = system: A375 (Amelanotic Melanoma); assay: Cell viability analysis, skin cancer A375; format: cell-based, human
U-2OS = assay: Cell viability analysis, osteosarcoma U-2OS; format: cell-based, human
[10] = system: 786-O (Renal adenocarcinoma); assay: Cell viability analysis, renal cancer 786-O; format: cell-based, human
[11] = system: Hep3B (hepatocellular carcinoma); assay: Cell viability analysis, hepatic cancer Hep3B; format: cell-based, human
TOV-21G = assay: Cell viability analysis, ovarian cancer TOV-21G; format: cell-based, human
[12] = system: MKN-45 (Gastric Adenocarcinoma); assay: Cell viability analysis, gastric cancer MKN-45; format: cell-based, human
[13] = system: BCC (basal cell carcinoma); assay: Cell viability analysis, skin cancer BCC; format: cell-based, human
[14] = system: A549 (Lung Adenocarcinoma); assay: Cell viability analysis, lung cancer A549; format: cell-based, human
[15] = system: TSGH-8301 (Urinary Bladder Carcinoma); assay: Cell viability analysis, bladder cancer TSGH-8301; format: cell-based, human
[16] = system: HepG2 (Hepatocellular Carcinoma); assay: Cell viability analysis, hepatic cancer HepG2; format: cell-based, human
[17] = system: C-33A (Cervical carcinoma); assay: Cell viability analysis, cervical cancer C-33A; format: cell-based, human
[18] = system: HCT116 (p53+) (Colorectal Carcinoma)

SMILES: CCCSc1ccc2[nH]c(NC(=O)OC)nc2c1 [Albendazole (Albenza)]
- The results of antibiotic drug inhibiting cancer cell lines (cell viability analysis), PC-3 ([1]; PC-3, repeated experiment): 37.99
- The results of antibiotic drug inhibiting cancer cell lines (cell viability analysis), NIH-OVCAR-3 (NIH: OVCAR-3; NIH-OVCAR-3, repeated experiment): 52.49
- The results of antibiotic drug inhibiting cancer cell lines (cell viability analysis), AGS ([2]; AGS, repeated experiment): 29.46
- The results of antibiotic drug inhibiting cancer cell lines (cell viability analysis), SAS ([3]; SAS, repeated experiment): 36.08
- The results of antibiotic drug inhibiting cancer cell lines (cell viability analysis), BxPC-3 (BxPC-3; BxPC-3, repeated experiment): 36.62
- The results of antibiotic drug inhibiting cancer cell lines (cell viability analysis), HeLa ([4]; HeLa, repeated experiment): 29.9
- The results of antibiotic drug inhibiting cancer cell lines (cell viability analysis), MDA-MB231 ([5]; MDA-MB231, repeated experiment): 44.52
- The results of antibiotic drug inhibiting cancer cell lines (cell viability analysis), MCF-7 ([6]; MCF-7, repeated experiment): 69.83
- The results of antibiotic drug inhibiting cancer cell lines (cell viability analysis), AsPC-1 (AsPC-1; AsPC-1, repeated experiment): 35.28
- The results of antibiotic drug inhibiting cancer cell lines (cell viability analysis), T24 (T24; T24, repeated experiment): 37.98
- The results of antibiotic drug inhibiting cancer cell lines (cell viability analysis), LoVo ([7]; LoVo, repeated experiment): 50.79
- The results of antibiotic drug inhibiting cancer cell lines (cell viability analysis), H1650 ([8]; H1650, repeated experiment): 41.75
- The results of antibiotic drug inhibiting cancer cell lines (cell viability analysis), A375 ([9]; A375, repeated experiment): 36.21
- The results of antibiotic drug inhibiting cancer cell lines (cell viability analysis), U2OS (U-2OS; U2OS, repeated experiment): 50.07
- The results of antibiotic drug inhibiting cancer cell lines (cell viability analysis), 786-O ([10]; 786-O, repeated experiment): 21.55
- The results of antibiotic drug inhibiting cancer cell lines (cell viability analysis), Hep3B ([11]; Hep3B, repeated experiment): 61.38
- The results of antibiotic drug inhibiting cancer cell lines (cell viability analysis), TOV-21G (TOV-21G; TOV-21G, repeated experiment): 29.79
- The results of antibiotic drug inhibiting cancer cell lines (cell viability analysis), MKN-45 ([12]; MKN-45, repeated experiment): 62.34
- The results of antibiotic drug inhibiting cancer cell lines (cell viability analysis), BCC ([13]; BCC, repeated experiment): 31.25
- The results of antibiotic drug inhibiting cancer cell lines (cell viability analysis), A549 ([14]; A549, repeated experiment): 24.2
- The results of antibiotic drug inhibiting cancer cell lines (cell viability analysis), TSGH-8301 ([15]; TSGH-8301, repeated experiment): 46.61
- The results of antibiotic drug inhibiting cancer cell lines (cell viability analysis), HepG2 ([16]; HepG2, repeated experiment): 62.7
- The results of antibiotic drug inhibiting cancer cell lines (cell viability analysis), C-33A ([17]; C-33A, repeated experiment): 42.62
- viability [18]: 20.9%

SMILES: CS(=O)(=O)c1ccc([C@@H](O)[C@@H](CO)NC(=O)C(Cl)Cl)cc1 [Thiamphenicol (Thiophenicol)]
- The results of antibiotic drug inhibiting cancer cell lines (cell viability analysis), PC-3 [1]: 150.2
- The results of antibiotic drug inhibiting cancer cell lines (cell viability analysis), NIH-OVCAR-3 (NIH: OVCAR-3): 115.7
- The results of antibiotic drug inhibiting cancer cell lines (cell viability analysis), AGS [2]: 140.3
- The results of antibiotic drug inhibiting cancer cell lines (cell viability analysis), SAS [3]: 54.04
- The results of antibiotic drug inhibiting cancer cell lines (cell viability analysis), BxPC-3 (BxPC-3): 86.08
- The results of antibiotic drug inhibiting cancer cell lines (cell viability analysis), HeLa [4]: 90.82
- The results of antibiotic drug inhibiting cancer cell lines (cell viability analysis), MDA-MB231 [5]: 95.4
- The results of antibiotic drug inhibiting cancer cell lines (cell viability analysis), MCF-7 [6]: 89.24
- The results of antibiotic drug inhibiting cancer cell lines (cell viability analysis), AsPC-1 (AsPC-1): 102.5
- The results of antibiotic drug inhibiting cancer cell lines (cell viability analysis), T24 (T24): 164
- The results of antibiotic drug inhibiting cancer cell lines (cell viability analysis), LoVo [7]: 96.08
- The results of antibiotic drug inhibiting cancer cell lines (cell viability analysis), H1650 [8]: 94.92
- The results of antibiotic drug inhibiting cancer cell lines (cell viability analysis), A375 [9]: 112
- The results of antibiotic drug inhibiting cancer cell lines (cell viability analysis), U2OS (U-2OS): 51.12
- The results of antibiotic drug inhibiting cancer cell lines (cell viability analysis), 786-O [10]: 93.48
- The results of antibiotic drug inhibiting cancer cell lines (cell viability analysis), Hep3B [11]: 103.3
- The results of antibiotic drug inhibiting cancer cell lines (cell viability analysis), TOV-21G (TOV-21G): 105.7
- The results of antibiotic drug inhibiting cancer cell lines (cell viability analysis), MKN-45 [12]: 177
- The results of antibiotic drug inhibiting cancer cell lines (cell viability analysis), BCC [13]: 111.8
- The results of antibiotic drug inhibiting cancer cell lines (cell viability analysis), A549 [14]: 97.41
- The results of antibiotic drug inhibiting cancer cell lines (cell viability analysis), TSGH-8301 [15]: 136.8
- The results of antibiotic drug inhibiting cancer cell lines (cell viability analysis), HepG2 [16]: 143.9
- The results of antibiotic drug inhibiting cancer cell lines (cell viability analysis), C-33A [17]: 140.2
- viability [18]: 150%
